# Assay results: ChEMBL document CHEMBL3046004, “Esterase-mediated resistance to pyrethroids in field populations of Helicoverpa armigera (Lepidoptera: Noctuidae) from Central Africa” (2009)
# Key:
# Type in all cases: functional
# Helicoverpa armigera [1] = experiment: Resistance factor, ratio of LD50 for fourth-instar larval stage of Helicoverpa armigera field strain Gaschiga isolated from tomato plant to LD50 for fourth-instar larval stage of pyrethroid-susceptible Helicoverpa armigera laboratory strain BK-77
# Helicoverpa armigera [2] = experiment: Resistance factor, ratio of LD50 for fourth-instar larval stage of Helicoverpa armigera field strain Ngong to LD50 for fourth-instar larval stage of pyrethroid-susceptible Helicoverpa armigera laboratory strain BK-77
# Helicoverpa armigera [3] = experiment: Insecticidal activity against fourth-instar larval stage of Helicoverpa armigera field strain Pitoa isolated from tomato plant assessed as mortality applied topically onto thorax measured after 48 hr
# Helicoverpa armigera [4] = experiment: Insecticidal activity against fourth-instar larval stage of Helicoverpa armigera field strain Pitoa isolated from maize plant assessed as mortality applied topically onto thorax measured after 48 hr
# Helicoverpa armigera [5] = experiment: Insecticidal activity against fourth-instar larval stage of Helicoverpa armigera field strain Tchollire isolated from cotton plant assessed as mortality applied topically onto thorax measured after 48 hr
# Helicoverpa armigera [6] = experiment: Insecticidal activity against fourth-instar larval stage of pyrethroid-resistance Helicoverpa armigera laboratory strain GS-RR06 assessed as mortality applied topically onto thorax measured after 48 hr
# Helicoverpa armigera [7] = experiment: Insecticidal activity against fourth-instar larval stage of pyrethroid-susceptible Helicoverpa armigera laboratory strain BK-77 assessed as mortality applied topically onto thorax measured after 48 hr
# Helicoverpa armigera [8] = experiment: Resistance factor, ratio of LD50 for fourth-instar larval stage of Helicoverpa armigera field strain Pitoa isolated from tomato plant to LD50 for fourth-instar larval stage of pyrethroid-susceptible Helicoverpa armigera laboratory strain BK-77
# Helicoverpa armigera [9] = experiment: Resistance factor, ratio of LD50 for fourth-instar larval stage of Helicoverpa armigera field strain Tchollire to LD50 for fourth-instar larval stage of pyrethroid-susceptible Helicoverpa armigera laboratory strain BK-77
# Helicoverpa armigera [10] = experiment: Resistance factor, ratio of LD50 for fourth-instar larval stage of Helicoverpa armigera field strain Pitoa isolated from maize plant to LD50 for fourth-instar larval stage of pyrethroid-susceptible Helicoverpa armigera laboratory strain BK-77
# Helicoverpa armigera [11] = experiment: Resistance factor, ratio of LD50 for fourth-instar larval stage of pyrethroid-resistance Helicoverpa armigera laboratory strain GS-RR06 to LD50 for fourth-instar larval stage of pyrethroid-susceptible Helicoverpa armigera laboratory strain BK-77
# Helicoverpa armigera [12] = experiment: Insecticidal activity against fourth-instar larval stage of Helicoverpa armigera field strain Gaschiga isolated from tomato plant assessed as mortality applied topically onto thorax measured after 48 hr
# Helicoverpa armigera [13] = experiment: Insecticidal activity against fourth-instar larval stage of Helicoverpa armigera field strain Ngong isolated from cotton plant assessed as mortality applied topically onto thorax measured after 48 hr
# Helicoverpa armigera [14] = experiment: Synergism factor, ratio of LD50 for fourth-instar larval stage of pyrethroid-resistance Helicoverpa armigera laboratory strain GS-RR08 to LD50 for fourth-instar larval stage of pyrethroid-resistance Helicoverpa armigera laboratory strain GS-RR08 in presence of 3.2 microg/larva propenofos
# Helicoverpa armigera [15] = experiment: Synergism factor, ratio of LD50 for fourth-instar larval stage of Helicoverpa armigera field strain Gaschiga isolated form hyptis plant to LD50 for fourth-instar larval stage of Helicoverpa armigera field strain Gaschiga isolated from hyptis plant in presence of 10 microg/larva cytochrome P450 monooxygenase inhibitor, PBO
# Helicoverpa armigera [16] = experiment: Synergism factor, ratio of LD50 for fourth-instar larval stage of Helicoverpa armigera field strain Ngong to LD50 for fourth-instar larval stage of Helicoverpa armigera field strain Ngong in presence of 10 microg/larva cytochrome P450 monooxygenase inhibitor, PBO
# Helicoverpa armigera [17] = experiment: Synergism factor, ratio of LD50 for Helicoverpa armigera field strain Guider to LD50 for fourth-instar larval stage of Helicoverpa armigera field strain Guider in presence of 10 microg/larva cytochrome P450 monooxygenase inhibitor, PBO
# Helicoverpa armigera [18] = experiment: Synergism factor, ratio of LD50 for fourth-instar larval stage of Helicoverpa armigera Foumbot to LD50 for fourth-instar larval stage of Helicoverpa armigera Foumbot in presence of 10 microg/larva cytochrome P450 monooxygenase inhibitor, PBO
# Helicoverpa armigera [19] = experiment: (§1) Synergism factor, ratio of LD50 for fourth-instar larval stage of pyrethroid-resistance Helicoverpa armigera field strain Pitoa isolated from tomato plant to LD50 for fourth-instar larval stage of Helicoverpa armigera field strain Pitoa isolated from tomato plant in presence of 10 microg/larva cytochrome P450 monooxygenase inhibitor, PBO
# Helicoverpa armigera [20] = experiment: as §1, with “of” for “of pyrethroid-resistance”, “maize” for “tomato”
# Helicoverpa armigera [21] = experiment: Synergism factor, ratio of LD50 for fourth-instar larval stage of Helicoverpa armigera field strain Home to LD50 for fourth-instar larval stage of Helicoverpa armigera field strain Home in presence of 10 microg/larva cytochrome P450 monooxygenase inhibitor, PBO
# Helicoverpa armigera [22] = experiment: Synergism factor, ratio of LD50 for fourth-instar larval stage of pyrethroid-resistance Helicoverpa armigera laboratory strain GS-RR06 to LD50 for fourth-instar larval stage of pyrethroid-resistance Helicoverpa armigera laboratory strain GS-RR06 in presence of 10 microg/larva cytochrome P450 monooxygenase inhibitor, PBO
# Helicoverpa armigera [23] = experiment: Insecticidal activity against fourth-instar larval stage of pyrethroid-resistance Helicoverpa armigera laboratory strain GS-RR08 assessed as mortality applied topically onto thorax measured after 48 hr in presence of 3.2 microg/larva […]
# Helicoverpa armigera [24] = experiment: Insecticidal activity against fourth-instar larval stage of Helicoverpa armigera field strain Gaschiga isolated from hyptis plant assessed as mortality applied topically onto thorax 30 min after 10 microg/larva cytochrome P450 monooxygenase inhibitor, PBO application measured after 48 hr
# Helicoverpa armigera [25] = experiment: Insecticidal activity against fourth-instar larval stage of Helicoverpa armigera field strain Ngong isolated from cotton plant assessed as mortality applied topically onto thorax 30 min after 10 microg/larva cytochrome P450 monooxygenase inhibitor, PBO application measured after 48 hr
# Helicoverpa armigera [26] = experiment: Insecticidal activity against fourth-instar larval stage of Helicoverpa armigera field strain Guider isolated from cotton plant assessed as mortality applied topically onto thorax 30 min after 10 microg/larva cytochrome P450 monooxygenase inhibitor, PBO application measured after 48 hr
# Helicoverpa armigera [27] = experiment: Insecticidal activity against fourth-instar larval stage of Helicoverpa armigera Foumbot isolated from tomato plant assessed as mortality applied topically onto thorax 30 min after 10 microg/larva cytochrome P450 monooxygenase inhibitor, PBO application measured after 48 hr
# Helicoverpa armigera [28] = experiment: Insecticidal activity against fourth-instar larval stage of Helicoverpa armigera field strain Pitoa isolated from tomato plant assessed as mortality applied topically onto thorax 30 min after 10 microg/larva cytochrome P450 monooxygenase inhibitor, PBO application measured after 48 hr
# Helicoverpa armigera [29] = experiment: Insecticidal activity against fourth-instar larval stage of Helicoverpa armigera field strain Pitoa isolated from maize plant assessed as mortality applied topically onto thorax 30 min after 10 microg/larva cytochrome P450 monooxygenase inhibitor, PBO application measured after 48 hr
# Helicoverpa armigera [30] = experiment: Insecticidal activity against fourth-instar larval stage of Helicoverpa armigera field strain Home isolated from cotton plant assessed as mortality applied topically onto thorax 30 min after 10 microg/larva cytochrome P450 monooxygenase inhibitor, PBO application measured after 48 hr
# Helicoverpa armigera [31] = experiment: Insecticidal activity against fourth-instar larval stage of pyrethroid-resistance Helicoverpa armigera laboratory strain GS-RR06 assessed as mortality applied topically onto thorax 30 min after 10 microg/larva cytochrome P450 monooxygenase inhibitor, PBO application measured after 48 hr
# Helicoverpa armigera [32] = experiment: Resistance factor, ratio of LD50 for fourth-instar larval stage of Helicoverpa armigera field strain Gaschiga isolated from hyptis plant to LD50 for fourth-instar larval stage of pyrethroid-susceptible Helicoverpa armigera laboratory strain BK-77
# Helicoverpa armigera [33] = experiment: Resistance factor, ratio of LD50 for fourth-instar larval stage of Helicoverpa armigera field strain Djalingo to LD50 for fourth-instar larval stage of pyrethroid-susceptible Helicoverpa armigera laboratory strain BK-77
# Helicoverpa armigera [34] = experiment: Resistance factor, ratio of LD50 for fourth-instar larval stage of Helicoverpa armigera field strain Guider to LD50 for fourth-instar larval stage of pyrethroid-susceptible Helicoverpa armigera laboratory strain BK-77
# Helicoverpa armigera [35] = experiment: Resistance factor, ratio of LD50 for fourth-instar larval stage of Helicoverpa armigera field strain Mokong to LD50 for fourth-instar larval stage of pyrethroid-susceptible Helicoverpa armigera laboratory strain BK-77
# Helicoverpa armigera [36] = experiment: Resistance factor, ratio of LD50 for fourth-instar larval stage of Helicoverpa armigera Foumbot to LD50 for fourth-instar larval stage of pyrethroid-susceptible Helicoverpa armigera laboratory strain BK-77
# Helicoverpa armigera [37] = experiment: Insecticidal activity against fourth-instar larval stage of Helicoverpa armigera field strain Guider isolated from cotton plant assessed as mortality applied topically onto thorax measured after 48 hr
# Helicoverpa armigera [38] = experiment: Insecticidal activity against fourth-instar larval stage of Helicoverpa armigera field strain Mokong isolated from cotton plant assessed as mortality applied topically onto thorax measured after 48 hr
# Helicoverpa armigera [39] = experiment: Insecticidal activity against fourth-instar larval stage of Helicoverpa armigera Foumbot isolated from tomato plant assessed as mortality applied topically onto thorax measured after 48 hr
# Helicoverpa armigera [40] = experiment: Insecticidal activity against fourth-instar larval stage of Helicoverpa armigera field strain Sorga isolated from cotton plant assessed as mortality applied topically onto thorax measured after 48 hr
# Helicoverpa armigera [41] = experiment: Insecticidal activity against fourth-instar larval stage of Helicoverpa armigera field strain Home isolated from cotton plant assessed as mortality applied topically onto thorax measured after 48 hr
# Helicoverpa armigera [42] = experiment: Insecticidal activity against fourth-instar larval stage of pyrethroid-resistance Helicoverpa armigera laboratory strain GS-RR08 assessed as mortality applied topically onto thorax measured after 48 hr
# Helicoverpa armigera [43] = experiment: Resistance factor, ratio of LD50 for fourth-instar larval stage of Helicoverpa armigera field strain Sorga to LD50 for fourth-instar larval stage of pyrethroid-susceptible Helicoverpa armigera laboratory strain BK-77
# Helicoverpa armigera [44] = experiment: Resistance factor, ratio of LD50 for fourth-instar larval stage of Helicoverpa armigera field strain Home to LD50 for fourth-instar larval stage of pyrethroid-susceptible Helicoverpa armigera laboratory strain BK-77
# Helicoverpa armigera [45] = experiment: Resistance factor, ratio of LD50 for fourth-instar larval stage of pyrethroid-resistance Helicoverpa armigera laboratory strain GS-RR08 to LD50 for fourth-instar larval stage of pyrethroid-susceptible Helicoverpa armigera laboratory strain BK-77
# Helicoverpa armigera [46] = experiment: Insecticidal activity against fourth-instar larval stage of Helicoverpa armigera field strain Gaschiga isolated from hyptis plant assessed as mortality applied topically onto thorax measured after 48 hr
# Helicoverpa armigera [47] = experiment: Insecticidal activity against fourth-instar larval stage of Helicoverpa armigera field strain Djalingo isolated from cotton plant assessed as mortality applied topically onto thorax measured after 48 hr
smiles,measurement,setting,value
CCOc1ccc(C(C)(C)COCc2cccc(Oc3ccccc3)c2)cc1 [ETOFENPROX],Ratio,Helicoverpa armigera [1],4
same,Ratio,Helicoverpa armigera [2],2
same,LD50,Helicoverpa armigera [3],531.4 microgAi/g
same,LD50,Helicoverpa armigera [4],285.3 microgAi/g
same,LD50,Helicoverpa armigera [5],152.2 microgAi/g
same,LD50,Helicoverpa armigera [6],135.7 microgAi/g
same,LD50,Helicoverpa armigera [7],55.5 microgAi/g
same,Ratio,Helicoverpa armigera [8],10
same,Ratio,Helicoverpa armigera [9],3
same,Ratio,Helicoverpa armigera [10],5
same,Ratio,Helicoverpa armigera [11],2
same,LD50,Helicoverpa armigera [12],229.3 microgAi/g
same,LD50,Helicoverpa armigera [13],136.6 microgAi/g
CC1(C)C(C=C(Cl)Cl)C1C(=O)OC(C#N)c1cccc(Oc2ccccc2)c1 (stereo not drawn) [ALPHA-CYPERMETHRIN],Ratio,Helicoverpa armigera [14],3.7
same,Ratio,Helicoverpa armigera [15],25
same,Ratio,Helicoverpa armigera [16],37.5
same,Ratio,Helicoverpa armigera [17],3.6
same,Ratio,Helicoverpa armigera [18],1.3
same,Ratio,Helicoverpa armigera [19],5
same,Ratio,Helicoverpa armigera [20],8.3
same,Ratio,Helicoverpa armigera [21],2.1
same,Ratio,Helicoverpa armigera [22],1.5
same,LD50,Helicoverpa armigera [23],226.6 microgAi/g
same,LD50,Helicoverpa armigera [24],1.8 microgAi/g
same,LD50,Helicoverpa armigera [25],3 microgAi/g
same,LD50,Helicoverpa armigera [26],8.8 microgAi/g
same,LD50,Helicoverpa armigera [27],63 microgAi/g
same,LD50,Helicoverpa armigera [28],53.2 microgAi/g
same,LD50,Helicoverpa armigera [29],28.9 microgAi/g
same,LD50,Helicoverpa armigera [30],21.3 microgAi/g
same,LD50,Helicoverpa armigera [31],480.3 microgAi/g
same,Ratio,Helicoverpa armigera [32],96
same,Ratio,Helicoverpa armigera [2],240
same,Ratio,Helicoverpa armigera [33],194
same,Ratio,Helicoverpa armigera [34],67
same,Ratio,Helicoverpa armigera [35],152
same,Ratio,Helicoverpa armigera [36],174
same,LD50,Helicoverpa armigera [37],31.6 microgAi/g
same,LD50,Helicoverpa armigera [38],71.5 microgAi/g
same,LD50,Helicoverpa armigera [39],81.6 microgAi/g
same,LD50,Helicoverpa armigera [4],239.9 microgAi/g
same,LD50,Helicoverpa armigera [40],57.7 microgAi/g
same,LD50,Helicoverpa armigera [5],48 microgAi/g
same,LD50,Helicoverpa armigera [41],43.9 microgAi/g
same,LD50,Helicoverpa armigera [42],832.5 microgAi/g
same,LD50,Helicoverpa armigera [6],718.4 microgAi/g
same,LD50,Helicoverpa armigera [7],0.5 microgAi/g
same,Ratio,Helicoverpa armigera [9],102
same,Ratio,Helicoverpa armigera [10],510
same,Ratio,Helicoverpa armigera [43],123
same,Ratio,Helicoverpa armigera [44],93
same,Ratio,Helicoverpa armigera [45],1771
same,Ratio,Helicoverpa armigera [11],1529
same,LD50,Helicoverpa armigera [46],45 microgAi/g
same,LD50,Helicoverpa armigera [47],91.5 microgAi/g
same,LD50,Helicoverpa armigera [13],112.6 microgAi/g
COC(=O)N(C(=O)N1CO[C@@]2(C(=O)OC)Cc3cc(Cl)ccc3C2=N1)c1ccc(OC(F)(F)F)cc1 [INDOXACARB],Ratio,Helicoverpa armigera [1],0.4
same,Ratio,Helicoverpa armigera [2],1.4
same,LD50,Helicoverpa armigera [3],1.3 microgAi/g
same,LD50,Helicoverpa armigera [4],0.7 microgAi/g
same,LD50,Helicoverpa armigera [6],0.7 microgAi/g
same,LD50,Helicoverpa armigera [7],0.7 microgAi/g
same,Ratio,Helicoverpa armigera [8],2
same,Ratio,Helicoverpa armigera [10],1.1
same,Ratio,Helicoverpa armigera [11],1
same,LD50,Helicoverpa armigera [12],0.3 microgAi/g
same,LD50,Helicoverpa armigera [13],0.9 microgAi/g
CCCSP(=O)(OCC)Oc1ccc(Br)cc1Cl (stereo not drawn) [PROFENOFOS],Ratio,Helicoverpa armigera [1],5.3
same,Ratio,Helicoverpa armigera [2],4
same,LD50,Helicoverpa armigera [3],36.2 microgAi/g
same,LD50,Helicoverpa armigera [4],19.5 microgAi/g
same,LD50,Helicoverpa armigera [6],17.7 microgAi/g
same,LD50,Helicoverpa armigera [7],4.6 microgAi/g
same,Ratio,Helicoverpa armigera [8],7.9
same,Ratio,Helicoverpa armigera [10],4.2
same,Ratio,Helicoverpa armigera [11],3.9
same,LD50,Helicoverpa armigera [12],24.3 microgAi/g
same,LD50,Helicoverpa armigera [13],18.5 microgAi/g
